Reference: PMC5291098, “Molecular mutagenesis of ppGpp: turning a RelA activator into an inhibitor” (Scientific Reports, 2017)
“Also recorded” adds a separate entry of the source.

What was measured:
ΔywaCΔyjbM B. subtilis = assay: Growth of ΔywaCΔyjbM B. subtilis in valine drop-out S7 medium (functional test for Rel inhibition); type: cell-based, Bacillus subtilis; conditions: up to 1 mM (0 to 1000 µM)
Text: Finally, we tested the three of our most promising inhibitors (DR-4250, DR-M014 and DR-5163) for RSH inhibition in bacterial culture. For this we used the Gram-positive bacterium B. subtilis due to its better uptake of compounds as compared to Gram-negative species such as E. coli[50]. The functional test for RSH inhibition relied on the auxotrophy of (p)ppGpp-deficient (ppGpp^0) B. subtilis for methionine and branched-chain amino acids valine, leucine and isoleucine. The B. subtilis RSH repertoire consists of one multi-domain ribosome-associated enzyme Rel and two SAS, YwaC and YjbM[3][52]. Because the SAS RelQEf is refractory to inhibition by our test compounds (Supplementary Figure 2), we used a B. subtilis strain lacking SASs (ΔywaCΔyjbM), in which the sole source of (p)ppGpp is Rel[53]. Defined S7 medium[54] lacking valine supports the growth of ΔywaCΔyjbM B. subtilis, but not the ppGpp^0 stain (Supplementary Figure 5). […] This is indicative of the test compounds failing to inhibit Rel and thereby rendering the strain phenotypically ppGpp^0 (Supplementary Figure 5). A lack of cellular uptake is a likely explanation. […]
Growth assays with Bacillus subtilis BSB1 wild type strain
SAS deletion and ppGpp0 strain of B. subtilis5 were grown in S7 liquid medium6 except for amino acid requirements, which were met as described elsewhere 7. On 96-well plate, 90 µl of B subtilis starter culture was mixed with 10 µL of compound dilution (in 5 mM Tris pH 7.2) so that final OD600 was 0.025 (l = 1 cm).
Following incubation was without shaking at 37°C and growth was monitored with Tecan Infinite M200 at OD600 (raw OD600 values are reported). B. subtilis starter culture was prepared as follows. Late exponential phase cells in S7, with full set of amino acids, were diluted ≈10-fold in S7 lacking either valine or lysine so that, after addition of 8% DMSO, OD600 was 0.25. Next, cell suspensions were aliquoted, frozen in liquid nitrogen, and stored at -80°C. Just before the experiment, cells were thawed on ice and appropriate amount of media was […]
DywaC DyjbM BSB1 B. subtilis ppGpp0. BSB1 B. subtilis wild type strain as grown on S7 synthetic media8 drop-out media lacking valine which abolishes the growth of ppGpp0 (Drel DywaC DyjbM) strain due to valine auxotrophy (dashed line). […]
inhibit the Rel and render the strain ppGpp0.

[1] = test system: T1, RelA binding to 70S initiation complexes; assay: Spin down assay of RelA binding to 70S initiation complexes; design: species or system Escherichia coli; conditions: 500 μM compound; 2 μM RelA, 1 μM 70S IC programmed with mRNA(MF), with or without tRNAPhe
T1 construct: made in house
Protocol: Figure 4 Functional studies of DR-M014 and DR-4250 with programmed ribosomal complexes. (a,b) Inhibition of RelA activated by starved ribosomal complexes containing deacylated A-site tRNA^Phe. The reaction mixture contained 30 nM RelA, 0.5 μM 70S, 2 μM tRNA^Phe, 2 μM tRNAi^Met, 2 μM mRNA(MF), 100 μM ppGpp, 0.3 mM [^3H] GDP and 1 mM ATP. The experiments were performed in HEPES:Polymix buffer with 5 mM Mg^2+. Error bars represent standard deviations of linear regression estimates, each experiment was performed at least three times. […] Reaction mixture containing combinations of 2 μM RelA, 1 μM 70S initiation complexes programmed with mRNA(MF), 3 μM deacylated tRNA^Phe and test compounds at 500 μM was preincubated at 37 °C for 15 minutes prior to loading 50 μl samples on top of a 50 μl 30% sucrose cushion. After centrifugation for 25 minutes (70,000 r.p.m. at 12 °C) the supernatants were quickly aspirated, the pellets resuspended in 20 μl of SDS loading buffer, and the proteins resolved on 10% SDS-PAGE gel.
The ppGpp-analogues reported earlier promote RelA association with 70S ribosome[25][26] and are, therefore, promising tools for generating stable 70S:RelA complexes for structural investigations. […]
3', 300 μM 3H-GDP, 100 μM ppGpp was pre-incubated at 37° C for 2 min and then reaction started by addition of 1 mM ATP, time points (5 μl) taken, quenched with formic acid and analyzed by TLC. […]

| Structure (SMILES) | Effect on growth of ΔywaCΔyjbM B. subtilis (in words) (ΔywaCΔyjbM B. subtilis) | Effect on growth of ΔywaCΔyjbM B. subtilis (in words) (ΔywaCΔyjbM B. subtilis; listed as DR-M013) | Effect on RelA binding to 70S initiation complexes (in words) [1] |
| --- | --- | --- | --- |
| Nc1nc2c(ncn2C2OC(COP(=O)(O)OCP(=O)(O)O)C(OP(=O)(O)OCP(=O)(O)O)C2O)c(=O)[nH]1 (stereo not shown) [DR-4250, Guanosine 3’,5’-di(phosphonomethoxyphosphate)] | did not affect bacterial growth; also recorded: does not affect the growth |  |  |
| Nc1nc2c(ncn2C2CCN(C(=O)P(=O)(O)O)CC2)c(=O)[nH]1 [DR-M014] | does not affect the growth | did not affect bacterial growth | promote RelA binding to 70S initiation complexes; also recorded: significantly promotes RelA binding |
